Data published in a melting point compilation (Tetko et al.; mined from patent text by program, amines drawn as free bases though some values may be those of a salt).

| Structure (SMILES) | melting point |
| --- | --- |
| Fc1ccc(C2OC3(CCN(Cc4ccccc4)CC3)N3CCCCC23)cc1 (centres undefined) | 158 to 159 °C |
| OCCn1c(NC2CCNCC2)nc2cccnc21 | 157 °C |
| Cn1c(=O)c2conc2n(-c2ccccc2)c1=O | 219 to 221 °C |
| Cn1cc(-c2ccccc2)c(=S)c(-c2cccc(Br)c2)c1 | 185 to 188 °C |
| Cc1ccsc1C(=O)NCCCSc1ccncc1 | 104 to 105 °C |
| CCCc1c(OCc2cccc(C=CC(=O)O)c2)ccc(C(C)=O)c1O | 195 to 196 °C |
| CC(C)(C)OC(=O)N[C@@H](CC(N)=O)C(=O)N1CCN(Cc2ccccc2)CC1 | 98 to 100 °C |
| COc1cc2ncnc(Nc3ccc4ccccc4n3)c2cc1OC | 215 to 216 °C |
| CCCCCN1C(=O)C(CCC#N)(NC(=O)c2ccc(Cl)c(Cl)c2)c2ccccc21 (centres undefined) | 79 to 84 °C |
| CC(C)CNC(=O)C(C)(C)N=NC(C)(C)C(=O)NCC(C)C | 100 °C |
| CC(=O)c1cnc2c(c1)oc(=O)n2CCc1ccccn1 | 138 to 140 °C |
| CC(C)Nc1nc2ccccc2n2cnnc12 | 133 to 135 °C |
| COc1cc(C)c(C(=O)c2c(OC)cnc(Cl)c2C(F)(F)F)c(OC)c1OC | 117 to 119 °C |
| O=c1[nH]c2ncc(-c3ccc(-c4cn[nH]c4)cc3)nc2n1CC1CCCCC1 | 305 to 307 °C |
| Cc1cc(C(Cl)=NNc2ccccc2)ccc1[N+](=O)[O-] | 146 to 148 °C |
| CCCCc1oc2ccccc2c1C(=O)Nc1ccc2c(Br)c(OCc3nn[nH]n3)ccc2c1 | 242 to 245 °C |
| Cc1nc(-c2cccnc2)c2nc(-c3ccccc3)cc-2[nH]1 | 252 to 254 °C |
| C1=Nc2c(cnc3ccccc23)OC12CCCCC2 | 164 to 165 °C |
| O=C(CCl)Nc1ccc2c(c1NC(=O)COc1ccccc1)C(=O)c1ccccc1C2=O | 217 to 218 °C |
| O=C1c2ccccc2S(=O)(=O)N1CCNCC1COc2ccccc2O1 (centres undefined) | 181 °C |
| CCN(CC)CCCNC(=O)Cn1ncc(-c2ccc(Cl)cc2)c1-c1ccccc1 | 104 to 105 °C |
| COc1ccc(NCC2CCn3c(nc4ccccc43)S2)cc1 (centres undefined) | 155 to 157 °C |
| Cc1cc(Nc2nccc(-c3sc(-c4cccnc4)nc3C)n2)ccc1N1CCCCC1 | 200 to 201 °C |
| CCC1C(=O)N2C(C(=O)OCc3ccc([N+](=O)[O-])cc3)=C(CCNC(C)=O)CC12 (centres undefined) | 174 to 176 °C |
| Cc1ccccc1CC(C(=O)Nc1nc2cc(Cl)ccc2o1)c1ccc(S(C)(=O)=O)cc1 (centres undefined) | 184 to 185 °C |

| Structure (SMILES) | melting point |
| --- | --- |
| CCCc1nc2c(N)nc3ccccc3c2n1CCOCCCSC | 99 to 101 °C |
| O=C(O)CC(C1CCCCC1)C1CCCCC1 | 118 to 120 °C |
| O=[N+]([O-])c1cc2c(c([N+](=O)[O-])c1)CCCC2 | 93 °C |
| O=C1Nc2ccccc2Nc2nc(-c3ccccc3)ncc21 | 260 to 261 °C |
| CC1CC(=O)CCC1c1ccccc1 (centres undefined) | 71.5 to 72.5 °C |
| Cn1cc(-c2ccccc2)c(=O)c(-c2cc(Br)ccc2F)c1 | 148 to 150 °C |
| CO/C(=C\C=C\c1cc2cc(Cl)c(Cl)cc2[nH]1)C(=O)NC1CC(C)(C)N(C)C(C)(C)C1 | 212 °C |
| CCCCCCCCCC[C@H](CC(=O)OC(C)(C)C)C(=O)N1C(=O)OC[C@@H]1C(C)C | 42 to 43 °C |
| Cn1cc(-c2cc(-c3cnc4c(c3)CCC(=O)N4)ccn2)n(-c2ccc(C(C)(C)C#N)cc2)c1=O | 284 °C |
| CCCCCNc1cccc(C(=O)O)c1C(=O)O | 236 to 238 °C |
| CC(C)(C)C(=O)Nc1nc(CN2CCC(c3c[nH]c4ccccc34)CC2)cs1 | 93 to 96 °C |
| Oc1ccc2cc(F)ccc2c1 | 118 to 120 °C |
| N#Cc1ccc(COC2COc3nc([N+](=O)[O-])cn3C2)cc1 (centres undefined) | 166 to 167 °C |
| Cc1cccc2ncc(C(=O)NC3CCCCC3)c(=O)n12 | 174 to 176 °C |
| O=C1CCC(N2Cc3cc(CNC(=O)Nc4cc(C(F)(F)F)ccc4Cl)ccc3C2=O)C(=O)N1 (centres undefined) | 240 to 242 °C |
| Cc1cccc(COc2cccnc2NC(=S)Nc2ccc(Cl)cc2)c1F | 184 to 187 °C |
| CS(=O)(=O)c1ccc(-c2c(-c3ccc(F)cc3)c(OCC(=O)c3cccs3)nn2CC(=O)c2cccs2)cc1 | 136 to 138 °C |
| Fc1ccc2c(C3CCC4(CC3)OCCO4)c[nH]c2c1 | 158 to 159 °C |
| OC1CCCCC1n1cnc2cc(Cl)c(Cl)cc21 (centres undefined) | 236 to 238 °C |
| CCOC(=O)c1ccc2sc(C=Cc3cccnc3)c(C)c2c1 | 123 to 124 °C |
| CCC(CC)n1nc(C)c2c(O)nc(C)nc21 | 202 to 203 °C |
| Cc1ccc(S(=O)(=O)NC(C)(C)CO)cc1NC(=O)c1cnn2c(C3CC3)cc(-c3ccc(C(F)(F)F)cc3)nc12 | 232 to 233 °C |
| CC(=O)OCNC(=O)c1cc(C)c(C(c2cc(F)ccc2F)S(=O)(=O)c2ccc(F)cc2)cn1 (centres undefined) | 111 to 113 °C |
| CCOC12CC(C)(C)C(O1)C(OC(=O)c1ccc([N+](=O)[O-])cc1)C=C2C (centres undefined) | 144 to 146 °C |
| CSc1c(S(N)(=O)=O)ccn1C | 135 to 137 °C |

| Structure (SMILES) | melting point |
| --- | --- |
| CC(=O)N1CCN(CCOc2cc(OC(C)C)c3c(Nc4c(Cl)cnc5c4OCO5)ncnc3c2)CC1 | 208 to 210 °C |
| CC(C)(C)CNC(=O)C1=C(C(=O)Nc2cc(OC3CCCC3)c(Cl)cc2F)CCCC1 | 173 to 175 °C |
| Cc1c(OCC(F)(F)F)ccnc1CSc1nc2ccccc2n1NCCCO | 113 to 114 °C |
| CN(C)c1ccc(C(O)C#Cc2ccc(C(=O)O)cc2)cc1C(C)(C)C (centres undefined) | 139 °C |
| Cc1ccc(O)cc1C(CCC(=O)O)Oc1cc(OCc2cccnc2)ccc1C#N (racemic) | 198 to 200 °C |
| O=C1c2ccccc2-n2c1nc1ccc(Br)cc1c2=O | 315 to 316 °C |
| CC(=O)Nc1cccc2c1C(=O)c1c-2n[nH]c1-c1ccc(N2CCCCC2)cc1 | 291 °C |
| COc1ccc(-c2ccc(N3CCCN(c4ccc(-c5ccc(OC)c(OC)c5)cn4)CC3)nc2)cc1OC | 190 to 192 °C |
| O=[N+]([O-])c1ccc2c(c1)S(=O)(=O)c1ccccc1-2 | 259 °C |
| O=C(O)c1ccccc1Oc1ccc(F)cc1 | 146 to 147 °C |
| Cc1cn(S(C)(=O)=O)c2c1C(=O)CC(c1ccccc1Cl)C2 (centres undefined) | 167 to 168 °C |
| C#CCN1CCCc2cccc(CSc3nc4ccccc4[nH]3)c21 | 122 °C |
| S=C=NCc1cc(-c2ccccc2)no1 | 66 °C |
| CC(C)(C)OC(=O)N1CCC(=O)N1c1ccccc1 | 150 °C |
| COC(=O)C1(C)CN(C(=O)Nc2ccc(Cl)cc2)N=C1c1ccc(Cl)cc1 (centres undefined) | 122 °C |
| Oc1cc(-c2ccc(Cl)cc2Cl)n[nH]1 | 198 °C |
| CCCCCCCCCCCCOc1ccc(C(=O)OC)cc1 | 56 to 57 °C |
| O=C(O)COc1ccc2c(-c3ccc(F)cc3)noc2c1Cl | 233 to 237 °C |
| ClC1=Nc2ccccc2Cn2cccc21 | 102 to 104 °C |
| CC1(N2Cc3c(N)cccc3C2=O)CCC(=O)NC1=O (centres undefined) | 289 to 292 °C |
| CCCCCCCCCCC1SCCCN1C(=S)Nc1cccc(Br)c1 (centres undefined) | 73 to 74 °C |
| O=[N+]([O-])c1ccc2c(c1)CCN(C[C@H](O)C(F)(F)F)CC2 | 82 to 85 °C |
| Cc1nnc(-c2ccnc(Nc3ccc(S(C)(=O)=O)cc3)c2)o1 | 244 to 245 °C |
| c1ccc(-c2ccc3[nH]c4ccc(-c5ccccc5)cc4c3c2)cc1 | 145 to 147 °C |
| Cn1nc(Nc2cc(-c3ccc4c(c3)NC(=O)C4)cn3ccnc23)cc1C(C)(C)O | 180 to 182 °C |

| Structure (SMILES) | melting point |
| --- | --- |
| CCC(=O)NC1Cc2cccc3c2N(CCC3)C1=O (centres undefined) | 149 to 152 °C |
| CCC(=O)N1N=C(c2ccc([N+](=O)[O-])c(C)c2)c2cc(Cl)ccc2C=C1C | 134 to 138 °C |
| FC(F)(F)c1cc(-c2ccc(Cl)nn2)ccc1Cl | 211 to 214 °C |
| Cc1ccc(-c2cn(C)cc(-c3ccc(Cl)c(Cl)c3)c2=O)cc1C | 150 to 152 °C |
| O=C(CC1CCCCC1)NC1CCCCC1 | 164 to 165 °C |
| CC(C)(C)OC(=O)[C@H]1N=CSC[C@]1(O)C(F)(F)F | 126 to 128 °C |
| Cc1ccc(N(C)S(=O)(=O)c2cccs2)c2[nH]c(C(=O)O)cc12 | 223 to 225 °C |
| ClC(=NNc1cc(Cl)ccc1Cl)c1ccccc1 | 84.5 to 86 °C |
| CCCCCCCCCCOC(=O)Oc1ccc(-c2ccc(C#N)cc2)cc1 | 59.3 to 60 °C |
| CC1CC(=O)NN=C1c1ccc(N)c([N+](=O)[O-])c1 (centres undefined) | 234 to 238 °C |
| COc1cccc(-c2c(Cl)c(CN3CCOCC3)nc3sc4c(c23)CCN(Cc2ccccc2)C4)c1OC | 176 to 177 °C |
| CCCc1c(OCCCS(=O)c2nc3ccc(C(=O)O)cc3[nH]2)ccc(C(C)=O)c1O (centres undefined) | 173 to 175 °C |
| OCc1cn(Cc2ccc(OCc3csc(-c4ccccc4)n3)cc2)nc1-c1cccs1 | 147 to 148 °C |
| COC(=O)[C@H]1[C@H](NC(C)=O)C(=O)O[C@@H]1C | 105 to 106 °C |
| CCOC(=O)CCCCOc1ccc(OCC(F)(F)F)cc1C(=O)NCC1CCCCN1 (centres undefined) | 100 to 102 °C |
| O=C(c1ccc(OS(=O)(=O)C(F)(F)F)cc1OS(=O)(=O)C(F)(F)F)c1ccc(OS(=O)(=O)C(F)(F)F)cc1OS(=O)(=O)C(F)(F)F | 94 to 96 °C |
| COc1ccc(C2=NN(C3CCN(S(=O)(=O)c4ccccc4F)CC3)C(=O)CC2)cc1OC | 198 to 199 °C |
| Oc1cccc(N(c2ccccc2)c2ccc(-c3ccc(N(c4ccccc4)c4cccc(O)c4)cc3)cc2)c1 | 113 to 117 °C |
| O=C(CCl)Nc1ccc(-c2nc3ccccc3s2)cc1I | 192 to 194 °C |
| CN(C)CC(O)c1cc(C(F)(F)F)nc2c(C(F)(F)F)cccc12 (centres undefined) | 80 to 80.7 °C |
| Cc1ccc(C(=O)c2cc(CCN(C)C)c(O)c(C(C)(C)C)c2)cc1 | 123 to 124 °C |
| O=S(=O)(c1cccs1)N1CCc2[nH]c3c(cnc4cc(Cl)ccc43)c2C1 | > 250 °C |
| COc1ccccc1CN1Cc2c(-c3ccccc3)c3cc(C)c(C)cc3c(=O)n2CC1=O | 211 to 214 °C |
| COc1cc(Oc2cccc(C(F)(F)F)c2)nc(C(=O)NN=C(C)c2ccccc2)c1 | 181 to 182 °C |
